Test results as given in the NIST ThermoML archive (doi:10.1021/je049591p).
Numbers after ± are expanded uncertainties.

Key:
[1] = for surface tension liquid-gas: Ring tensiometer; for mass density: 101.33 kPa, Liquid
[2] = xn = mol fraction of the nth substance listed; conditions: Ring tensiometer

For `OCCO` [1,2-ethanediol], the surface tension liquid-gas ([1]; 293.15 K) was 48.42 ± 0.84 mN/m, the mass density ([1]; 293.15 K) was 1113.34 ± 1 kg/m3 and the surface tension liquid-gas ([1]; 298.15 K) was 48.03 ± 0.83 mN/m. For the same molecule, the surface tension liquid-gas ([1]; 303.15 K) was 47.57 ± 0.82 mN/m, the mass density ([1]; 303.15 K) was 1106.36 ± 0.93 kg/m3 and the surface tension liquid-gas ([1]; 308.15 K) was 47.2 ± 0.82 mN/m. For the same molecule, the surface tension liquid-gas ([1]; 313.15 K) was 46.78 ± 0.81 mN/m, the mass density ([1]; 313.15 K) was 1098.39 ± 0.84 kg/m3 and the surface tension liquid-gas ([1]; 318.15 K) was 46.42 ± 0.8 mN/m. The surface tension liquid-gas ([1]; 323.15 K) was 46.02 ± 0.8 mN/m and the mass density ([1]; 323.15 K) was 1091.05 ± 0.77 kg/m3.

With `OCc1ccccc1` [benzenemethanol] + OCCO the surface tension liquid-gas ([2]; 293.15 K, x1 = 0.0319) was 47.78 ± 0.83 mN/m, the surface tension liquid-gas ([2]; 293.15 K, x1 = 0.0535) was 47.45 ± 0.82 mN/m and the surface tension liquid-gas ([2]; 293.15 K, x1 = 0.0727) was 47.13 ± 0.82 mN/m. The surface tension liquid-gas ([2]; 293.15 K, x1 = 0.0854) was 46.69 ± 0.81 mN/m, the surface tension liquid-gas ([2]; 293.15 K, x1 = 0.1118) was 45.87 ± 0.8 mN/m and the surface tension liquid-gas ([2]; 293.15 K, x1 = 0.206) was 44.07 ± 0.77 mN/m. It also gave a surface tension liquid-gas ([2]; 293.15 K, x1 = 0.2633) of 42.87 ± 0.76 mN/m, a surface tension liquid-gas ([2]; 293.15 K, x1 = 0.3883) of 41.53 ± 0.74 mN/m and a surface tension liquid-gas ([2]; 293.15 K, x1 = 0.5596) of 40.58 ± 0.73 mN/m. It also gave a surface tension liquid-gas ([2]; 293.15 K, x1 = 0.7394) of 39.44 ± 0.71 mN/m, a surface tension liquid-gas ([2]; 293.15 K, x1 = 0.9101) of 39.28 ± 0.71 mN/m and a surface tension liquid-gas ([2]; 293.15 K, x1 = 1) of 39.05 ± 0.71 mN/m. It also gave a surface tension liquid-gas ([2]; 298.15 K, x1 = 0.0319) of 47.35 ± 0.82 mN/m, a surface tension liquid-gas ([2]; 298.15 K, x1 = 0.0535) of 47.01 ± 0.81 mN/m and a surface tension liquid-gas ([2]; 298.15 K, x1 = 0.0727) of 46.67 ± 0.81 mN/m. The surface tension liquid-gas ([2]; 298.15 K, x1 = 0.0854) was 46.19 ± 0.8 mN/m, the surface tension liquid-gas ([2]; 298.15 K, x1 = 0.1118) was 45.43 ± 0.79 mN/m and the surface tension liquid-gas ([2]; 298.15 K, x1 = 0.206) was 43.61 ± 0.77 mN/m. For the same molecule, the surface tension liquid-gas ([2]; 298.15 K, x1 = 0.2633) was 42.42 ± 0.75 mN/m, the surface tension liquid-gas ([2]; 298.15 K, x1 = 0.3883) was 41.07 ± 0.73 mN/m and the surface tension liquid-gas ([2]; 298.15 K, x1 = 0.5596) was 40.18 ± 0.72 mN/m. It also gave a surface tension liquid-gas ([2]; 298.15 K, x1 = 0.7394) of 38.95 ± 0.71 mN/m, a surface tension liquid-gas ([2]; 298.15 K, x1 = 0.9101) of 38.79 ± 0.71 mN/m and a surface tension liquid-gas ([2]; 298.15 K, x1 = 1) of 38.58 ± 0.71 mN/m. It also gave a surface tension liquid-gas ([2]; 303.15 K, x1 = 0.0319) of 46.92 ± 0.81 mN/m, a surface tension liquid-gas ([2]; 303.15 K, x1 = 0.0535) of 46.53 ± 0.81 mN/m and a surface tension liquid-gas ([2]; 303.15 K, x1 = 0.0727) of 46.15 ± 0.8 mN/m. The surface tension liquid-gas ([2]; 303.15 K, x1 = 0.0854) was 45.76 ± 0.8 mN/m, the surface tension liquid-gas ([2]; 303.15 K, x1 = 0.1118) was 44.9 ± 0.78 mN/m and the surface tension liquid-gas ([2]; 303.15 K, x1 = 0.206) was 43.08 ± 0.76 mN/m. The surface tension liquid-gas ([2]; 303.15 K, x1 = 0.2633) was 41.87 ± 0.74 mN/m, the surface tension liquid-gas ([2]; 303.15 K, x1 = 0.3883) was 40.61 ± 0.72 mN/m and the surface tension liquid-gas ([2]; 303.15 K, x1 = 0.5596) was 39.68 ± 0.71 mN/m. It also gave a surface tension liquid-gas ([2]; 303.15 K, x1 = 0.7394) of 38.45 ± 0.7 mN/m, a surface tension liquid-gas ([2]; 303.15 K, x1 = 0.9101) of 38.3 ± 0.7 mN/m and a surface tension liquid-gas ([2]; 303.15 K, x1 = 1) of 38.12 ± 0.7 mN/m. The surface tension liquid-gas ([2]; 308.15 K, x1 = 0.0319) was 46.54 ± 0.81 mN/m, the surface tension liquid-gas ([2]; 308.15 K, x1 = 0.0535) was 46.07 ± 0.8 mN/m and the surface tension liquid-gas ([2]; 308.15 K, x1 = 0.0727) was 45.72 ± 0.8 mN/m. For the same molecule, the surface tension liquid-gas ([2]; 308.15 K, x1 = 0.0854) was 45.31 ± 0.79 mN/m, the surface tension liquid-gas ([2]; 308.15 K, x1 = 0.1118) was 44.46 ± 0.78 mN/m and the surface tension liquid-gas ([2]; 308.15 K, x1 = 0.206) was 42.6 ± 0.75 mN/m. For the same molecule, the surface tension liquid-gas ([2]; 308.15 K, x1 = 0.2633) was 41.39 ± 0.73 mN/m, the surface tension liquid-gas ([2]; 308.15 K, x1 = 0.3883) was 40.14 ± 0.72 mN/m and the surface tension liquid-gas ([2]; 308.15 K, x1 = 0.5596) was 39.24 ± 0.71 mN/m. It also gave a surface tension liquid-gas ([2]; 308.15 K, x1 = 0.7394) of 37.94 ± 0.69 mN/m, a surface tension liquid-gas ([2]; 308.15 K, x1 = 0.9101) of 37.79 ± 0.69 mN/m and a surface tension liquid-gas ([2]; 308.15 K, x1 = 1) of 37.63 ± 0.69 mN/m. For the same molecule, the surface tension liquid-gas ([2]; 313.15 K, x1 = 0.0319) was 46.14 ± 0.8 mN/m, the surface tension liquid-gas ([2]; 313.15 K, x1 = 0.0535) was 45.66 ± 0.79 mN/m and the surface tension liquid-gas ([2]; 313.15 K, x1 = 0.0727) was 45.26 ± 0.79 mN/m. For the same molecule, the surface tension liquid-gas ([2]; 313.15 K, x1 = 0.0854) was 44.85 ± 0.78 mN/m, the surface tension liquid-gas ([2]; 313.15 K, x1 = 0.1118) was 44.04 ± 0.77 mN/m and the surface tension liquid-gas ([2]; 313.15 K, x1 = 0.206) was 42.12 ± 0.74 mN/m. For the same molecule, the surface tension liquid-gas ([2]; 313.15 K, x1 = 0.2633) was 40.84 ± 0.72 mN/m, the surface tension liquid-gas ([2]; 313.15 K, x1 = 0.3883) was 39.7 ± 0.71 mN/m and the surface tension liquid-gas ([2]; 313.15 K, x1 = 0.5596) was 38.77 ± 0.7 mN/m. For the same molecule, the surface tension liquid-gas ([2]; 313.15 K, x1 = 0.7394) was 37.51 ± 0.68 mN/m, the surface tension liquid-gas ([2]; 313.15 K, x1 = 0.9101) was 37.35 ± 0.68 mN/m and the surface tension liquid-gas ([2]; 313.15 K, x1 = 1) was 37.16 ± 0.68 mN/m. The surface tension liquid-gas ([2]; 318.15 K, x1 = 0.0319) was 45.71 ± 0.79 mN/m, the surface tension liquid-gas ([2]; 318.15 K, x1 = 0.0535) was 45.24 ± 0.79 mN/m and the surface tension liquid-gas ([2]; 318.15 K, x1 = 0.0727) was 44.86 ± 0.78 mN/m. For the same molecule, the surface tension liquid-gas ([2]; 318.15 K, x1 = 0.0854) was 44.41 ± 0.78 mN/m, the surface tension liquid-gas ([2]; 318.15 K, x1 = 0.1118) was 43.53 ± 0.76 mN/m and the surface tension liquid-gas ([2]; 318.15 K, x1 = 0.206) was 41.67 ± 0.74 mN/m. It also gave a surface tension liquid-gas ([2]; 318.15 K, x1 = 0.2633) of 40.4 ± 0.72 mN/m, a surface tension liquid-gas ([2]; 318.15 K, x1 = 0.3883) of 39.24 ± 0.7 mN/m and a surface tension liquid-gas ([2]; 318.15 K, x1 = 0.5596) of 38.27 ± 0.69 mN/m. For the same molecule, the surface tension liquid-gas ([2]; 318.15 K, x1 = 0.7394) was 36.99 ± 0.67 mN/m, the surface tension liquid-gas ([2]; 318.15 K, x1 = 0.9101) was 36.84 ± 0.68 mN/m and the surface tension liquid-gas ([2]; 318.15 K, x1 = 1) was 36.63 ± 0.68 mN/m. For the same molecule, the surface tension liquid-gas ([2]; 323.15 K, x1 = 0.0319) was 45.26 ± 0.79 mN/m, the surface tension liquid-gas ([2]; 323.15 K, x1 = 0.0535) was 44.79 ± 0.78 mN/m and the surface tension liquid-gas ([2]; 323.15 K, x1 = 0.0727) was 44.32 ± 0.77 mN/m. The surface tension liquid-gas ([2]; 323.15 K, x1 = 0.0854) was 43.91 ± 0.77 mN/m, the surface tension liquid-gas ([2]; 323.15 K, x1 = 0.1118) was 43.06 ± 0.76 mN/m and the surface tension liquid-gas ([2]; 323.15 K, x1 = 0.206) was 41.16 ± 0.73 mN/m. For the same molecule, the surface tension liquid-gas ([2]; 323.15 K, x1 = 0.2633) was 39.9 ± 0.71 mN/m, the surface tension liquid-gas ([2]; 323.15 K, x1 = 0.3883) was 38.76 ± 0.69 mN/m and the surface tension liquid-gas ([2]; 323.15 K, x1 = 0.5596) was 37.79 ± 0.68 mN/m. For the same molecule, the surface tension liquid-gas ([2]; 323.15 K, x1 = 0.7394) was 36.53 ± 0.67 mN/m, the surface tension liquid-gas ([2]; 323.15 K, x1 = 0.9101) was 36.38 ± 0.67 mN/m and the surface tension liquid-gas ([2]; 323.15 K, x1 = 1) was 36.18 ± 0.67 mN/m.

For `OCCO` [1,2-ethanediol] + OCc1ccccc1, the surface tension liquid-gas ([2]; 293.15 K, x2 = 0) was 48.42 ± 0.84 mN/m, the surface tension liquid-gas ([2]; 298.15 K, x2 = 0) was 48.03 ± 0.83 mN/m and the surface tension liquid-gas ([2]; 303.15 K, x2 = 0) was 47.57 ± 0.82 mN/m. It also gave a surface tension liquid-gas ([2]; 308.15 K, x2 = 0) of 47.2 ± 0.82 mN/m, a surface tension liquid-gas ([2]; 313.15 K, x2 = 0) of 46.78 ± 0.81 mN/m and a surface tension liquid-gas ([2]; 318.15 K, x2 = 0) of 46.42 ± 0.8 mN/m. The surface tension liquid-gas ([2]; 323.15 K, x2 = 0) was 46.02 ± 0.8 mN/m.

`OCc1ccccc1` [benzenemethanol] gave a surface tension liquid-gas ([1]; 293.15 K) of 39.05 ± 0.71 mN/m, a mass density ([1]; 293.15 K) of 1045.2 ± 1 kg/m3 and a surface tension liquid-gas ([1]; 298.15 K) of 38.58 ± 0.71 mN/m. The mass density ([1]; 298.15 K) was 1041.4 ± 1 kg/m3, the surface tension liquid-gas ([1]; 303.15 K) was 38.12 ± 0.7 mN/m and the mass density ([1]; 303.15 K) was 1037.5 ± 0.9 kg/m3. For the same molecule, the surface tension liquid-gas ([1]; 308.15 K) was 37.63 ± 0.69 mN/m, the mass density ([1]; 308.15 K) was 1033.6 ± 0.9 kg/m3 and the surface tension liquid-gas ([1]; 313.15 K) was 37.16 ± 0.68 mN/m. For the same molecule, the mass density ([1]; 313.15 K) was 1029.8 ± 0.8 kg/m3, the surface tension liquid-gas ([1]; 318.15 K) was 36.63 ± 0.68 mN/m and the mass density ([1]; 318.15 K) was 1025.8 ± 0.8 kg/m3. For the same molecule, the surface tension liquid-gas ([1]; 323.15 K) was 36.18 ± 0.67 mN/m and the mass density ([1]; 323.15 K) was 1021.9 ± 0.8 kg/m3.
